Measurements from patent publication US8247551B2, “Lead sensor and methods of use” (priority 2007, dated 2012).
pKd: −log10 of the molar value.

Assays:
[1] = Turn-on fluorescence response to Pb2+ (Example 3, FIG. 49); settings: 5 μM, 2.5% methanol-water; unbound at 465 nm, Pb^2+ complex at 423 nm
Text: (§1) When the fluorescent binder according to the present embodiments binds with Pb^2+ to form a Pb^2+/binder complex, the complex fluoresces with a high optical brightness. For example, according to the present embodiments, the unbound fluorescent binder represented by Formula V (or Formula IV, in its protected form) may have an excitation band with a absorbance maximum λmax at a wavelength centered around 415 nm, an emission band with a emission maximum λmax centered around 465 and a quantum yield for the fluorescence emission of φ=0.12. When the fluorescent binder is bound to Pb^2+ ions, the resulting Pb^2+/binder complex may have an excitation band with a λmax centered around 389 nm, an emission band with a λmax centered around 423 nm, and a quantum yield of φ=0.63. Quantum yields were calculated with reference to the quantum yield of fluorescein (φ=0.95). […]
In this Example, the “turn on” response of the fluorophore corresponding to Formula V (Formula IV in protected form) was determined. The fluorescence emission spectrum of a 5 μM solution of the fluorophore in 2.5% methanol-water was recorded with a maximum emission intensity observed at λmax=465 nm (expanded spectrum shown in the inset in FIG. 49). […] The fluorescence emission spectrum of the resulting Pb^2+/fluorophore complex was recorded with a maximum fluorescence emission intensity observed at λmax=423 nm as presented in FIG. 49.

[2] = Apparent dissociation constant for Pb2+ from fluorescence of the complex (Hill fit); assay type: binding; settings: pH=10; read-out: apparent dissociation coefficient, Kd, for Pb^2+
Text: [drawing 8] or the corresponding thiolate compound (i.e., where one or both thiols of the ene-dithiol are deprotonated). In the presence of Pb^2+ ions and a hydrolyzing agent, the dithiocarbonate functionality of compound IV may be hydrolyzed and the resulting fluorescent binder compound binds with the Pb^2+ to form a Pb^2+/binder complex. According to specific embodiments, the fluorescent binder of the present disclosure has a high sensitivity for Pb^2+ ions, even in the presence of other metal ions. […] In other embodiments, the Kd may be less than 300 nM, or in certain embodiments less than 250 nM. […] As will be understood by one of ordinary skill in the art, the Kd for binding of Pb^2+ may vary according to the conditions of the experiment, including, but not limited to solvent, temperature, pH, etc. It should be noted that in other embodiments, other compounds represented by Formula I may also serve as selective binders of lead, or other metal ions.
(§2) All spectroscopic measurements were recorded in a solution of 2.5% methanol (for solubility reason) and water. HPLC grade MeOH and distilled water were used for each measurement. Absorption spectra were measured on a Varian Cary 300 spectrometer. Samples for absorption measurement were performed in 1-cm 1-cm quartz cuvettes (3.5 mL volume, Starna). […]

[3] = Fluorescence quantum yield in reference to fluorescein; assay type: physicochemical
Procedure: For an acetonitrile solution of fluorophore 7, when excited at […] or 384 nm band, an emission at 411 nm is observed. Similarly when a methanolic solution of fluorophore 7 is excited at 385 nm or 367 nm, an emission at 415 nm is observed. Finally for a solution of fluorophore 7 in the mixed solvent, when excited at 389 nm, an emission is observed at 423 nm (see FIG. 10). A 0.12 value for the quantum yield of fluorophore 7 in methanol was determined in reference to fluorescein in 0.1 M NaOH (φ=0.95) (using the procedure reported by Brannon, et al., J. Phys. Chem. 1978, 82, 705). Fluorophores of the present disclosure are further described in U.S. application Ser. No. 12/020,343, filed Jan. […]
as §1, with “When the fluorescent binder is bound to Pb^2+ ions, the resulting Pb^2+/binder complex may have an excitation band with a λmax centered around 389 nm, an emission band with a λmax centered around 423 nm, and a quantum yield of φ=0.63.” left out

[4] = Solubility; assay type: physicochemical
Text: (§3) These fluorophores are soluble in common organic solvents, for example, but not limited to, chloroform, methylene chloride, acetonitrile, and methanol and in mixtures of methanol and water. […] There is a shoulder near […] and no transition was observed beyond 430 nm. The molar extinction coefficients of these bands are near 10000 or higher. […] The spectral features remain unchanged in a mixed solvent such as 2.5% methanol 97.5% water. […] Thus, in principle, this compound can be used as a pH sensor. That is, the fluorescence emission intensity may vary according to the pH of the environment or solution that the fluorophore is in.
In addition, the Pb^2+/binder complex fluoresces with greater emission intensity over a wide pH range in aqueous solutions. According to one embodiment the Pb^2+/binder complex fluoresces with a high fluorescence emission intensity, for example with a quantum yield of greater than 0.5 (φ>0.5), at pH values of 10 or less. […] Thus, the term “high fluorescence emission intensity” means a fluorescence emission intensity having a quantum efficiency of greater than 0.5 (φ>0.5 as measured relative to a fluorescein reference). […] With other fluorophores, the fluorescence emission intensity of the fluorophore may decrease at low pH levels. For comparison, as discussed herein, the quantum yield for fluorescence emission of fluorescein decreases at pH levels less than ˜8.

[5] = Fluorescence emission with Pb2+ versus other metal ions (Example 5, FIG. 51); settings: 5 μM fluorophore, 75 μM Pb^2+, other metal ion 75 μM or 2 millimolar
Text: According to certain embodiments, the fluorescent binder discussed herein selectively binds to Pb^2+ over other metal ions including other transition metal ions. According to various embodiments, the fluorescence emission intensity of the Pb^2+/binder complex is greater than a fluorescence emission intensity of other metal ion/binder complexes. Other metal ions that may form a metal ion/binder complex that has a lower fluorescence emission intensity than that of the Pb^2+/binder complex include, but are not limited to Li^+, Na^+, K^+, Ca^2+, Mg^2+, Fe^2+, Co^2+, Ni^2+, Cu^2+, Zn^2+, Cd^2+, Mn^2+, Hg^2+, Sn^2+, As^3+, and mixtures thereof. For example, according to one non-limiting embodiment, the Pb^2+/binder complex in the presence of the other metal ions may have a fluorescence emission intensity at least about 10 times greater than the fluorescence emission intensity of another metal ion/binder complex. In other embodiments, the Pb^2+/binder complex in the presence of the other metal may have a fluorescence emission intensity at least about 20 times greater than the fluorescence emission intensity of another metal ion/binder complex. FIG. 51 compares the fluorescence emission intensity of the Pb^2+/binder complex in the presence of the other metal with the fluorescence emission intensity of the other metal ion/binder complexes (i.e., in the absence of Pb^2+). […]

[6] = Stability in acid and base; assay type: physicochemical
Text: as §3

[7] = Quantitative Pb2+ detection in NIST SRM 1643e Trace Elements in Water; settings: 1 μM compound, NEt4OH 2:1, 2.5% MeOH and water
Procedure: The fluorescence emission intensity of the Pb^2+/complex in a sample may be measured and compared to a standard calibration plot or values to determine the Pb^2+ ion concentration in the sample. For example, To further examine the sensitivity and accuracy of the sensor, a NIST standard of trace elements in water (SRM® 1643e) in the concentration range of 1-50 ppb Pb^2+ was used and probed with 1 μM of a compound having the structure of Formula IV. In this case, accurate fluorescence responses were observed from 50 ppb to as low as 10 ppb. Further, compound IV was also used in quantitating the concentration of Pb^2+ in solutions prepared from a lead standard (NIST SRM® 3128).
as §2, with “Starna). Fluorescence spectra were measured on a Photon Technology International QuantaMaster™4 spectrofluorometer. Fluorescence measurements were performed in 1-cm 1-cm quartz cuvettes (3.5 mL volume, NSG Precision Cells). Fluorescence quantum yields were determined in reference to fluorescein in 0.1 NaOH (φ=0.95).” for “Starna).”

| Structure (SMILES) | maximum fluorescence emission intensity [1] | pKd [2] | quantum yield for the fluorescence emission ([3]; unbound binder or Pb^2+ complex, reference fluorescein (φ=0.95)) | solubility in aqueous solution [4] | fluorescence emission intensity with Pb^2+ plus other metal ion versus other metal ion alone [5] | quantum yield ([3]; in methanol, reference fluorescein in 0.1 M NaOH) | stability in acid ([6]; acid) | stability in base ([6]; base (pH>7)) | Pb^2+ range detected quantitatively by increase in fluorescence response [7] |
| --- | --- | --- | --- | --- | --- | --- | --- | --- | --- |
| CC1(C)Oc2nc3ccccc3nc2C(S)=C1S [Formula V] | ~6000 counts/second | 6.66 | 0.12 | soluble in aqueous solution | significantly greater fluorescence emission intensity | – | – | – | – |
| CC1(C)Oc2nc3ccccc3nc2-c2sc(=O)sc21 [Compound 7, 4,4-dimethyl-4H-5-oxa-1,3-dithia-6,11-diaza-cyclopenta[a]anthracen-2-one] | – | – | – | – | – | 0.12 | stable in acid | transforms into a less fluorescent substance | 10-50 ppb |
